Earlier results, collected in patent US9572826B2, “Compositions for the treatment of hair loss” (priority 2008, dated 2017).

What was measured:
[1] = test system: hair loss; conditions: human, in vivo
[2] = test system: alopecia areata; conditions: intralesional injection

SMILES	patients in whom effective [1]	side effects reported [1]	injected sites with hair regrowth [2]
CC(C)(C)NC(=O)[C@H]1CC[C@H]2[C@@H]3CC[C@H]4NC(=O)C=C[C@]4(C)[C@H]3CC[C@]12C [Finasteride]	approximately 50%	erectile dysfunction and gynecomastica	–
CC(C)(C)CC(=O)OCC(=O)[C@@]12OC(C)(C)O[C@@H]1C[C@H]1[C@@H]3CCC4=CC(=O)C=C[C@]4(C)[C@@]3(F)[C@@H](O)C[C@@]12C [triamcinolone hexacetonide]	–	–	33 out of 34
